Consider 28 compounds from patent publication US20250034185A1 (priority 2021, published 2025).
Throughout, for P5P formed: test concentration or dose not given here.

The series concerns plasma enzymes. The conditions noted are these: Sprague Dawley, rat.
Take `Cc1ncc(COP(=O)(N[C@@H](C)C(=O)Oc2ccc3c(c2)CCCC3)Oc2ccccc2)c(C=O)c1O` (stereo partly drawn) [Compound 16xxxiv, (2S)-5,6,7,8-Tetrahydronaphthalen-2-yl 2-(((4-formyl-5-hydroxy-6-methylpyridin-3-yl)methoxy)(phenoxy)phosphorylamino)propanoate]: the P5P formed was 4.9 µM and the “relative P5P formed” value is reported as 144.1%.

Consider `Cc1ncc(COP(=O)(N[C@@H](C)C(=O)OC(C)C)Oc2cccc3ccccc23)c(C=O)c1O` (stereo partly drawn) [Compound 16iv, (2S)-Isopropyl 2-(((4-formyl-5-hydroxy-6-methylpyridin-3-yl)methoxy)(naphthalen-1-yloxy)phosphorylamino)propanoate], for which the P5P formed was found to be 1.8 µM and the “relative P5P formed” value was 47.4%.

With `[2H]C([2H])(NP(=O)(OCc1cnc(C)c(O)c1CN)Oc1ccccc1)C(=O)OC(C([2H])([2H])[2H])C([2H])([2H])[2H]` (centres unmarked) [Compound 14xiii], the P5P formed was 0.3 µM and the “relative P5P formed” value came to 17.6%.

Take `[2H]c1c([2H])c([2H])c(OP(=O)(N[C@@H](C)C(=O)OC(C)C)OCc2cnc(C)c(O)c2C=O)c([2H])c1[2H]` (some centres unmarked) [Compound 16xx]: the P5P formed came out at 1.4 µM and the “relative P5P formed” value came out at 38.9%.

Regarding `Cc1ncc(COP(=O)(N[C@@H](C)C(=O)OC(C)C)Oc2ccccc2)c(CO)c1O` (stereo partly drawn) [Compound 15ii, (S)-Isopropyl 2-((R)-((5-hydroxy-4-(hydroxymethyl)-6-methylpyridin-3-yl)methoxy)(phenoxy)phosphorylamino)propanoate], the P5P formed worked out at 0 µM and the “relative P5P formed” value was found to be 0.0%.

Turning to `Cc1ncc(COP(=O)(N[C@@H](C)C(=O)OC2CCCC2)Oc2ccccc2)c(C=O)c1O` (stereo partly drawn) [Compound 16xxiv, (2S)-Cyclopentyl 2-(((4-formyl-5-hydroxy-6-methylpyridin-3-yl)methoxy)(phenoxy)phosphorylamino)propanoate], the P5P formed was determined as 2.2 µM and the “relative P5P formed” value amounted to 129.4%.

In the case of `Cc1ncc(CO[P@@](=O)(N[C@@H](C)C(=O)OC(C)C)Oc2ccccc2)c(/C=N/C2CCCC2)c1O` [Compound 16xxxvi, (S)-Isopropyl 2-((S)-((4-((E)-(cyclopentylimino)methyl)-5-hydroxy-6-methylpyridin-3-yl)methoxy)(phenoxy)phosphorylamino)propanoate], the P5P formed stood at 3.8 µM and the “relative P5P formed” value is listed as 152.0%.

For the compound `CCC(CC)COC(=O)[C@H](C)NP(=O)(OCc1cnc(C)c(O)c1CN)Oc1ccccc1` (stereo partly drawn) [Compound 14i, (2S)-2-Ethylbutyl 2-(((4-(aminomethyl)-5-hydroxy-6-methylpyridin-3-yl)methoxy)(phenoxy)phosphorylamino)propanoate], the P5P formed stood at 0.17 µM and the “relative P5P formed” value came to 4.0%.

For `Cc1ncc(COP(=O)(N[C@@H](C)C(=O)OC2CCCC2)Oc2ccccc2)c(CN)c1O` (stereo partly drawn) [Compound 14x, (2S)-Cyclopentyl 2-(((4-(aminomethyl)-5-hydroxy-6-methylpyridin-3-yl)methoxy)(phenoxy)phosphorylamino)propanoate], the P5P formed is 0.3 µM and the “relative P5P formed” value was 11.1%.

As for `Cc1ncc(COP(=O)(N[C@@H](C)C(=O)Oc2ccc3c(c2)CCCC3)Oc2ccccc2)c(CN)c1O` (stereo partly drawn) [Compound 14xii, (2S)-5,6,7,8-Tetrahydronaphthalen-2-yl 2-(((4-(aminomethyl)-5-hydroxy-6-methylpyridin-3-yl)methoxy)(phenoxy)phosphorylamino)propanoate], the P5P formed amounted to 0.2 µM and the “relative P5P formed” value was found to be 5.3%.

Take `[2H]C([2H])([2H])c1ncc(C([2H])([2H])OP(=O)(N[C@@H](C)C(=O)OC(C)C)Oc2ccccc2)c(CO)c1O` (some centres unmarked) [Compound 15xxxi]: the P5P formed was 0.5 µM and the “relative P5P formed” value amounted to 20.0%.

`Cc1ncc(COP(=O)(N[C@@H](Cc2ccc(OCc3ccccc3)cc2)C(=O)OC(C)C)Oc2ccccc2)c(CN)c1O` (stereo partly drawn) [Compound 14xiv, (2S)-Isopropyl 2-(((4-(aminomethyl)-5-hydroxy-6-methylpyridin-3-yl)methoxy)(phenoxy)phosphorylamino)-3-(4-(benzyloxy)phenyl)propanoate]: the P5P formed was determined as 0.3 µM and the “relative P5P formed” value was 8.3%.

With `COC(=O)[C@@H]1CCCN1P(=O)(OCc1cnc(C)c(O)c1C=O)Oc1ccccc1` (stereo partly drawn) [Compound 16xxxiii, (2S)-Methyl 1-(((4-formyl-5-hydroxy-6-methylpyridin-3-yl)methoxy)(phenoxy)phosphoryl)pyrrolidine-2-carboxylate], the P5P formed worked out at 0.4 µM and the “relative P5P formed” value is recorded as 11.8%.

Take `Cc1ncc(CO[P@@](=O)(N[C@@H](C)C(=O)OC(C)C)Oc2ccccc2)c(CO)c1O` [Compound 15i, (S)-Isopropyl 2-((S)-((5-hydroxy-4-(hydroxymethyl)-6-methylpyridin-3-yl)methoxy)(phenoxy)phosphorylamino)propanoate]: the P5P formed stood at 0.15 µM and the “relative P5P formed” value came out at 2.6%.

Turning to `Cc1ncc(COP(=O)(N[C@@H](C)C(=O)OC2CCN(C)CC2)Oc2ccccc2)c(CN)c1O` (stereo partly drawn) [Compound 14xv, (2S)-1-Methylpiperidin-4-yl 2-(((4-(aminomethyl)-5-hydroxy-6-methylpyridin-3-yl)methoxy)(phenoxy)phosphorylamino)propanoate], the P5P formed was found to be 0.3 µM and the “relative P5P formed” value was 10.3%.

With `COCCOC(=O)[C@H](C)NP(=O)(OCc1cnc(C)c(O)c1C=O)Oc1ccccc1` (stereo partly drawn) [Compound 16xxxii, (2S)-2-Methoxyethyl 2-(((4-formyl-5-hydroxy-6-methylpyridin-3-yl)methoxy)(phenoxy)phosphorylamino)propanoate], the P5P formed came to 4.9 µM and the “relative P5P formed” value is listed as 144.1%.

With `Cc1ncc(COP(=O)(N[C@@H](C)C(=O)OCC2CCCC2)Oc2ccccc2)c(C=O)c1O` (stereo partly drawn) [Compound 16x, (2S)-Cyclopentylmethyl 2-(((4-formyl-5-hydroxy-6-methylpyridin-3-yl)methoxy)(phenoxy)phosphorylamino)propanoate], the P5P formed is 1.95 µM and the “relative P5P formed” value worked out at 121.9%.

In the case of `Cc1ncc(COP(=O)(N[C@@H](C)C(=O)OCc2ccccc2)Oc2ccccc2)c(CO)c1O` (stereo partly drawn) [Compound 15xi, (2S)-Benzyl 2-(((5-hydroxy-4-(hydroxymethyl)-6-methylpyridin-3-yl)methoxy)(phenoxy)phosphorylamino)propanoate], the P5P formed was determined as 1.1 µM and the “relative P5P formed” value stood at 10.5%.

Take `Cc1ncc(COP(=O)(N[C@@H](C)C(=O)OCc2ccccc2)Oc2ccccc2)c(CN)c1O` (stereo partly drawn) [Compound 14iii, (2S)-Benzyl 2-(((4-(aminomethyl)-5-hydroxy-6-methylpyridin-3-yl)methoxy)(phenoxy)phosphorylamino)propanoate]: the P5P formed came to 0.7 µM and the “relative P5P formed” value is listed as 6.7%.

With `[2H]C([2H])([2H])C(OC(=O)[C@H](C)NP(=O)(OCc1cnc(C)c(O)c1C=O)Oc1ccccc1)C([2H])([2H])[2H]` (some centres unmarked) [Compound 16xxii], the P5P formed was found to be 6.3 µM and the “relative P5P formed” value worked out at 153.7%.

Turning to `[2H]C([2H])(OP(=O)(N[C@@H](C)C(=O)OC(C)C)Oc1ccccc1)c1cnc(C)c(O)c1C=O` (some centres unmarked) [Compound 16xxvii], the P5P formed is 2 µM and the “relative P5P formed” value amounted to 69.0%.

For the compound `Cc1ncc(COP(=O)(N[C@H](C(=O)OC(C)C)C2CCCC2)Oc2ccccc2)c(C=O)c1O` (stereo partly drawn) [Compound 16xxviii, (2S)-Isopropyl 2-cyclopentyl-2-(((4-formyl-5-hydroxy-6-methylpyridin-3-yl)methoxy)(phenoxy)phosphorylamino)acetate], the P5P formed worked out at 0.4 µM and the “relative P5P formed” value amounted to 9.8%.

In the case of `Cc1ncc(COP(=O)(N[C@@H](Cc2ccc(O)cc2)C(=O)OC(C)C)Oc2ccccc2)c(C=O)c1O` (stereo partly drawn) [Compound 16xxx, (2S)-Isopropyl 2-(((4-formyl-5-hydroxy-6-methylpyridin-3-yl)methoxy)(phenoxy)phosphorylamino)-3-(4-hydroxyphenyl)propanoate], the P5P formed was determined as 2.2 µM and the “relative P5P formed” value worked out at 75.9%.

On to `Cc1ncc(COP(=O)(NC(CC(F)(F)F)C(=O)OC(C)C)Oc2ccccc2)c(C=O)c1O` (centres unmarked) [Compound 16xi, Isopropyl 4,4,4-trifluoro-2-(((4-formyl-5-hydroxy-6-methylpyridin-3-yl)methoxy)(phenoxy)phosphorylamino)butanoate], for which the P5P formed was found to be 0.6 µM and the “relative P5P formed” value worked out at 15.8%.

On to `Cc1ncc(COP(=O)(N[C@@H](C)C(=O)Oc2ccc(Cl)cc2)Oc2ccccc2)c(C=O)c1O` (stereo partly drawn) [Compound 16xL, (2S)-4-Chlorophenyl 2-(((4-formyl-5-hydroxy-6-methylpyridin-3-yl)methoxy)(phenoxy)phosphorylamino)propanoate], for which the P5P formed was 3.6 µM and the “relative P5P formed” value was 171.4%.

For `Cc1ncc(COP(=O)(N[C@@H](C)C(=O)OCc2ccccc2)Oc2ccccc2)c(/C=N/CCc2ccc(C#N)cc2)c1O` (stereo partly drawn) [Compound 16xxxviii, (2S)-Benzyl 2-(((4-((E)-(4-cyanophenethylimino)methyl)-5-hydroxy-6-methylpyridin-3-yl)methoxy)(phenoxy)phosphorylamino)propanoate], the P5P formed came to 0.5 µM and the “relative P5P formed” value was 14.7%.

In the case of `Cc1ncc(COP(=O)(N[C@@H](Cc2ccc(OCc3ccccc3)cc2)C(=O)OC(C)C)Oc2ccccc2)c(C=O)c1O` (stereo partly drawn) [Compound 16xxix, (2S)-Isopropyl 3-(4-(benzyloxy)phenyl)-2-(((4-formyl-5-hydroxy-6-methylpyridin-3-yl)methoxy)(phenoxy)phosphorylamino)propanoate], the P5P formed is 2.4 µM and the “relative P5P formed” value amounted to 58.5%.

In the case of `Cc1ccc(OC(=O)[C@H](C)NP(=O)(OCc2cnc(C)c(O)c2C=O)Oc2ccccc2)cc1` (stereo partly drawn) [Compound 16xxiii, (2S)-p-Tolyl 2-(((4-formyl-5-hydroxy-6-methylpyridin-3-yl)methoxy)(phenoxy)phosphorylamino)propanoate], the P5P formed was 2 µM and the “relative P5P formed” value is listed as 74.1%.
